Measurements: patent publication US9975885B2, “Broad-spectrum non-covalent coronavirus protease inhibitors” (priority 2016, dated 2018)
Marks after values point to notes of the source that are not given here.

How the values were obtained:
OC43-3CL^pro = OC43-3CL^pro (Human coronavirus OC43 (HCoV-OC43), UniProt P0C6X6); format: biochemical
HKU4-3CL^pro = HKU4-3CL^pro (Bat coronavirus HKU4 (BtCoV) (BtCoV/HKU4/2004), UniProt P0C6W3); format: biochemical
FIPV-3CL^pro = FIPV-3CL^pro (Feline coronavirus (strain FIPV WSU-79/1146) (FCoV), UniProt Q98VG9); assay: biochemical
Chain of FIPV-3CL^pro (Q98VG9 2904-3205 limits assumed): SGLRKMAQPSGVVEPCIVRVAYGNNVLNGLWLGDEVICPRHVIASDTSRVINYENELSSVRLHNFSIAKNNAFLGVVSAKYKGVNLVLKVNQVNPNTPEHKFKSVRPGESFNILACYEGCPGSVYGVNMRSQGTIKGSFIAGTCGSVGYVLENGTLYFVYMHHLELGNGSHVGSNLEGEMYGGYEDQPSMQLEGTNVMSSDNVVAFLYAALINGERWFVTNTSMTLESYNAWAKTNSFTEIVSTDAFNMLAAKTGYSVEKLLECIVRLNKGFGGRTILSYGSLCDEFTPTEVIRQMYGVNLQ

SARS-3CL^pro = SARS-3CL^pro (Severe acute respiratory syndrome coronavirus (SARS-CoV), UniProt P0C6X7); format: biochemical
NL63-3CL^pro = NL63-3CL^pro (Human coronavirus NL63 (HCoV-NL63), UniProt P0C6X5); assay: biochemical
Chain of NL63-3CL^pro (P0C6X5 2940-3242 limits assumed): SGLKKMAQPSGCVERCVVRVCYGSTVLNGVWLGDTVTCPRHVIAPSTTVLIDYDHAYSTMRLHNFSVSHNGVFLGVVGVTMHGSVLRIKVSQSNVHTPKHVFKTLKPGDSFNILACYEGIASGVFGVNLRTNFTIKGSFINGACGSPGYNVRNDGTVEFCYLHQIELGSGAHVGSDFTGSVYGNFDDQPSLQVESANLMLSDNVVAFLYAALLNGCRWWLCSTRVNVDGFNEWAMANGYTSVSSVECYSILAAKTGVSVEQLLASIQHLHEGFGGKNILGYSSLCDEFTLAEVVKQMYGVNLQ

HKU5-3CL^pro = HKU5-3CL^pro (Bat coronavirus HKU5 (BtCoV) (BtCoV/HKU5/2004), UniProt P0C6W4); format: biochemical
Chain of HKU5-3CL^pro (P0C6W4 3339-3644 limits assumed): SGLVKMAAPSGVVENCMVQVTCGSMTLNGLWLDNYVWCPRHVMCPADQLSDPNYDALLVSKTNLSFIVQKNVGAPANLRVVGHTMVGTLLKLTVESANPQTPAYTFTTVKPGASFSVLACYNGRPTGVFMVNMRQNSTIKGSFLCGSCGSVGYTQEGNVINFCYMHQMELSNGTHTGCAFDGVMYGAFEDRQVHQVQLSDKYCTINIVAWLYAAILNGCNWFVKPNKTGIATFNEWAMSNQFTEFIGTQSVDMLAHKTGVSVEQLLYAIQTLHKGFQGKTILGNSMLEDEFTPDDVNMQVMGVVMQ

HKU9-3CL^pro = HKU9-3CL^pro (Bat coronavirus HKU9 (BtCoV) (BtCoV/HKU9), UniProt P0C6W5); format: biochemical
Chain of HKU9-3CL^pro (P0C6W5 3104-3409 limits assumed): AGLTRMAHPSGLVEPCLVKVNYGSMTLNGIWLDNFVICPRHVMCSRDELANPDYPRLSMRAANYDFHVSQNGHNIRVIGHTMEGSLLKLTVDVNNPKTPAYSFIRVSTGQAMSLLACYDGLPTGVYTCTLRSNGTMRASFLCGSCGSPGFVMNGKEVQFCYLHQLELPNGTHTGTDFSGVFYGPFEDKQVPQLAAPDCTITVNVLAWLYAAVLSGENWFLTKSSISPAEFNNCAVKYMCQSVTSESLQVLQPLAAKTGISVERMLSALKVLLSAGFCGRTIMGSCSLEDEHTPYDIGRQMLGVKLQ

HKU1-3CL^pro = HKU1-3CL^pro (Human coronavirus HKU1 (isolate N1) (HCoV-HKU1), UniProt P0C6X2); assay: biochemical
Chain of HKU1-3CL^pro (P0C6X2 3335-3637 limits assumed): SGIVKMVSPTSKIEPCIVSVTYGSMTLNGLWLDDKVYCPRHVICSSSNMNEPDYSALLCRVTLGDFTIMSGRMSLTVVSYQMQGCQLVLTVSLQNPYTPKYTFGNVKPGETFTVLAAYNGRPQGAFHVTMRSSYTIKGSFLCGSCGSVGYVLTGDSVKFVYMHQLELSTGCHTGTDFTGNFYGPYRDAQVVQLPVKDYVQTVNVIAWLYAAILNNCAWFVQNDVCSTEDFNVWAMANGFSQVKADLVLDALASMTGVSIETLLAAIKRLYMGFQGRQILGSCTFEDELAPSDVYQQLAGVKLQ

PEDV-3CL^pro = PEDV-3CL^pro (Porcine epidemic diarrhea virus (strain CV777) (PEDV), UniProt P0C6Y4); assay: biochemical
Chain of PEDV-3CL^pro (P0C6Y4 2998-3299 limits assumed): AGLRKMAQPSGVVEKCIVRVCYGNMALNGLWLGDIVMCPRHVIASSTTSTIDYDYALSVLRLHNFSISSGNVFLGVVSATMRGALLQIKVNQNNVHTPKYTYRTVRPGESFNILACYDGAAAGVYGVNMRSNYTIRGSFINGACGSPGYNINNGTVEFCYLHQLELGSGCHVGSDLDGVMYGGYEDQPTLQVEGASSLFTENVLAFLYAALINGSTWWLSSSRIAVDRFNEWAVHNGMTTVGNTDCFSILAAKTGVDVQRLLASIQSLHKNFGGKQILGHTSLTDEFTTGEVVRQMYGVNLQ

[1] = test system: Ten CoV 3CL^pro's (FIPV-, PEDV-, NL63-, HKU1-, OC43-, SARS-, HKU4-, HKU5-, HKU9-, IBV-3CL^pro); format: biochemical, coronaviruses (α-, β-, γ-CoV)

Chain of OC43-3CL^pro (P0C6X6 3247-3549 limits assumed): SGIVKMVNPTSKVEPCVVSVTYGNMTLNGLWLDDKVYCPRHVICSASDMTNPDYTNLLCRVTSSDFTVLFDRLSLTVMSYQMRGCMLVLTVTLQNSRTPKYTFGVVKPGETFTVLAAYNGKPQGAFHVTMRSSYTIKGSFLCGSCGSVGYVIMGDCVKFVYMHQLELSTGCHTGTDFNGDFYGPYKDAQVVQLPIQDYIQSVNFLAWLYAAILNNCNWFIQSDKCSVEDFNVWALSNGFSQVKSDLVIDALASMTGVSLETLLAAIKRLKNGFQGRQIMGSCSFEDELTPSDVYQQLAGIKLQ
Chain of HKU4-3CL^pro (P0C6W3 3292-3597 limits assumed): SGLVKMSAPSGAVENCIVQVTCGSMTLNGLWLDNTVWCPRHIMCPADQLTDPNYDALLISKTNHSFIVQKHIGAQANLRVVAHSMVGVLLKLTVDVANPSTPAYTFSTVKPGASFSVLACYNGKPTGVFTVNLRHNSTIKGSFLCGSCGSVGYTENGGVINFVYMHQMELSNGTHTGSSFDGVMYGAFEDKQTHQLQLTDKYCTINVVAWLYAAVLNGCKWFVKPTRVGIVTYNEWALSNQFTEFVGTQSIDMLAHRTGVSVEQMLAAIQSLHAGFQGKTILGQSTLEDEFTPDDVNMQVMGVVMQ

SMILES	IC50 (OC43-3CL^pro) [µM]	IC50 (HKU4-3CL^pro) [µM]	IC50 (FIPV-3CL^pro) [µM]	IC50 (SARS-3CL^pro) [µM]	IC50 (NL63-3CL^pro) [µM]	IC50 (HKU5-3CL^pro) [µM]	IC50 (HKU9-3CL^pro) [µM]	IC50 (HKU1-3CL^pro) [µM]	IC50 (PEDV-3CL^pro) [µM]	inhibition at 100 µM (HKU1-3CL^pro; read-out: inhibition of HKU1-3CL^pro) [%]	inhibition at 100 µM (PEDV-3CL^pro; read-out: inhibition of PEDV-3CL^pro) [%]	Gini Coefficient [1]	Score (performance metric score) [1]	number of 3CL^pro's inhibited [1]	inhibition of OC43-3CL^pro (OC43-3CL^pro)	IC50 HKU4 (HKU4-3CL^pro)	inhibition of SARS-3CL^pro (SARS-3CL^pro)	inhibition of NL63-3CL^pro (NL63-3CL^pro)	IC50 HKU5 (HKU5-3CL^pro)	inhibition of HKU1-3CL^pro (HKU1-3CL^pro)
CC(C)CNC(=O)C(c1cccnc1)N(C(=O)c1c[nH]cn1)c1ccc(C(C)(C)C)cc1 (stereo not drawn) [Compound 43, N-(4-(tert-butyl)phenyl)-N-(2-(isobutylamino)-2-oxo-1-(pyridin-3-yl)ethyl)-1H-imidazole-4-carboxamide]	12.4 ± 1	4.6 ± 0.3	16.2 ± 1.3	5.9 ± 0.5	13.5 ± 0.8	5.8 ± 0.8	10.5 ± 1.1	5.8 ± 0.8	1.6 ± 0.1	–	–	–	–	–	–	–	–	–	–	–
CC(C)(C)CNC(=O)C(c1cccnc1)N(C(=O)c1c[nH]cn1)c1ccc(C(C)(C)C)cc1 (stereo not drawn) [Compound 44, N-(4-(tert-butyl)phenyl)-N-(2-(neopentylamino)-2-oxo-1-(pyridin-3-yl)ethyl)-1H-imidazole-4-carboxamide]	15.6 ± 1	4.2 ± 0.2	12.5 ± 0.8	6.3 ± 0.5	8.2 ± 0.5	3.6 ± 0.3	9.1 ± 0.8	9 ± 0.8	1.4 ± 0.1	–	–	–	–	–	–	–	–	–	–	–
CC(C)C(=O)Nc1ccc(N(C(=O)Cn2nnc3ccccc32)C(C(=O)NCc2cccnc2)c2cccc(F)c2)cc1 (stereo not drawn) [Compound 6, N-(4-(2-(1H-benzo[d][1,2,3]triazol-1-yl)-N-(1-(3-fluorophenyl)-2-oxo-2-((pyridin-3-ylmethyl)amino)ethyl)acetamido)phenyl)isobutyramide]	10 ± 1.9	2 ± 0.1	13.8 ± 1.1	5.5 ± 0.7	–	2.5 ± 0.2	–	6.8 ± 1.9	8.3 ± 1.2	> 50	> 50	–	–	–	–	–	–	–	–	–
CC(C)C(=O)Nc1ccc(N(C(=O)Cn2cnc3ccccc32)C(C(=O)NCc2ccccc2)c2cccc(F)c2)cc1 (stereo not drawn) [Compound 19, N-(4-(2-(1H-benzo[d]imidazol-1-yl)-N-(2-(benzylamino)-1-(3-fluorophenyl)-2-oxoethyl)acetamido)phenyl)isobutyramide]	3.9 ± 0.4	2.5 ± 0.2	–	–	–	2.9 ± 0.3	–	3.7 ± 0.6	–	–	–	0.31	6.8	–	–	–	–	–	–	–
CC(C)(C)NC(=O)C(c1ccsc1)N(C(=O)Cn1cnc2ccccc21)c1ccc(NC(=O)C2CC2)cc1 (stereo not drawn) [Compound 27, N-(4-(2-(1H-benzo[d]imidazol-1-yl)-N-(2-(tert-butylamino)-2-oxo-1-(thiophen-3-yl)ethyl)acetamido)phenyl)cyclopropanecarboxamide]	16.3 ± 2.1	9.6 ± 1	–	–	–	9.7 ± 1.6	–	–	–	–	–	0.37	11.0	–	–	–	–	–	–	–
CC(C)(C)NC(=O)C(c1cccnc1)N(C(=O)c1c[nH]cn1)c1ccc(C2CCC2)cc1 (stereo not drawn) [Compound 40, N-(2-(tert-butylamino)-2-oxo-1-(pyridin-3-yl)ethyl)-N-(4-cyclobutylphenyl)-1H-imidazole-4-carboxamide]	13.7 ± 1.3	9.6 ± 0.7	27 ± 3.1	9.9 ± 1.2	–	8.7 ± 1.2	18.2 ± 2.2	6.6 ± 1.2	11.2 ± 1.5	–	–	0.16	3.6	eight of ten	–	–	–	–	–	–
O=C(Nc1ccc(N(C(=O)Cn2nnc3ccccc32)C(C(=O)NCc2cccnc2)c2ccsc2)cc1)C1CC1 (stereo not drawn) [Compound 34, N-(4-(2-(1H-benzo[d][1,2,3]triazol-1-yl)-N-(2-oxo-2-((pyridin-3-ylmethyl)amino)-1-(thiophen-3-yl)ethyl)acetamido)phenyl)cyclopropanecarboxamide]	8.9 ± 0.5	–	27.5 ± 3.8	9.9 ± 0.9	15.6 ± 1.3	2.1 ± 0.2	–	7.4 ± 1.1	–	–	–	–	–	–	–	–	–	–	–	–
CC(C)(C)NC(=O)C(c1cccnc1)N(C(=O)c1c[nH]cn1)c1ccc(C2CCCCC2)cc1 (stereo not drawn) [Compound 42, N-(2-(tert-butylamino)-2-oxo-1-(pyridin-3-yl)ethyl)-N-(4-cyclohexylphenyl)-1H-imidazole-4-carboxamide]	63.1 ± 12	27 ± 4.1	39.7 ± 5.7	6.3 ± 0.5	–	4.3 ± 1	–	11.6 ± 1.5	26.2 ± 2.4	–	–	0.18	6.6	–	–	–	–	–	–	–
CC(C)(C)NC(=O)C(c1cccnc1)N(C(=O)c1c[nH]cn1)c1ccc(C2CCCC2)cc1 (stereo not drawn) [Compound 41, N-(2-(tert-butylamino)-2-oxo-1-(pyridin-3-yl)ethyl)-N-(4-cyclopentylphenyl)-1H-imidazole-4-carboxamide]	–	19.8 ± 1.5	18.7 ± 2	5.3 ± 0.5	–	19.1 ± 2	–	5 ± 0.6	10.5 ± 0.9	–	–	0.26	6.2	–	–	–	–	–	–	–
O=C(Nc1ccc(N(C(=O)Cn2nnc3ccccc32)C(C(=O)NC2CC2)c2ccsc2)cc1)C1CC1 (stereo not drawn) [Compound 32, N-(4-(2-(1H-benzo[d][1,2,3]triazol-1-yl)-N-(2-(cyclopropylamino)-2-oxo-1-(thiophen-3-yl)ethyl)acetamido)phenyl)cyclopropanecarboxamide]	2.8 ± 0.2	0.8 ± 0.1	–	8.2 ± 1.5	14.8 ± 1.2	0.9 ± 0.1	–	9.8 ± 1.8	–	–	–	–	5.0*	six	–	–	–	–	–	–
CC(C)NC(=O)C(c1ccsc1)N(C(=O)Cn1nnc2ccccc21)c1ccc(NC(=O)C2CC2)cc1 (stereo not drawn) [Compound 29, N-(4-(2-(1H-benzo[d][1,2,3]triazol-1-yl)-N-(2-(isopropylamino)-2-oxo-1-(thiophen-3-yl)ethyl)acetamido)phenyl)cyclopropanecarboxamide]	11.1 ± 1.2	2 ± 0.2	–	8.3 ± 1.5	8.1 ± 1.6	2.4 ± 0.3	–	–	–	–	–	–	6.3*	–	–	–	–	–	–	–
O=C(Nc1ccc(N(C(=O)Cn2nnc3ccccc32)C(C(=O)NCc2ccccc2)c2ccsc2)cc1)C1CC1 (stereo not drawn) [Compound 37, N-(4-(2-(1H-benzo[d][1,2,3]triazol-1-yl)-N-(2-(benzylamino)-2-oxo-1-(thiophen-3-yl)ethyl)acetamido)phenyl)cyclopropanecarboxamide]	2.2 ± 0.2	0.6 ± 0.04	–	2 ± 0.2	3 ± 0.3	0.8 ± 0.1	–	–	–	–	–	–	5.3*	–	–	–	–	–	–	–
CC(C)(C)OC(=O)CNC(=O)C(c1ccsc1)N(C(=O)Cn1nnc2ccccc21)c1ccc(NC(=O)C2CC2)cc1 (stereo not drawn) [Compound 64, tert-butyl (2-(2-(1H-benzo[d][1,2,3]triazol-1-yl)-N-(4-(cyclopropanecarboxamido)phenyl)acetamido)-2-(thiophen-3-yl)acetyl)glycinate]	4.5 ± 0.3	2.1 ± 0.2	11.7 ± 1.2	6.3 ± 0.8	8.7 ± 0.8	2 ± 0.2	–	6.5 ± 0.9	8.7 ± 1.4	–	–	–	–	eight of the ten	–	–	–	–	–	–
O=C(Nc1ccc(N(C(=O)Cn2nnc3ccccc32)C(C(=O)NC2CCCCC2)c2ccsc2)cc1)C1CC1 (stereo not drawn) [Compound 67, N-(4-(2-(1H-benzo[d][1,2,3]triazol-1-yl)-N-(2-(cyclohexylamino)-2-oxo-1-(thiophen-3-yl)ethyl)acetamido)phenyl)cyclopropanecarboxamide]	–	0.7 ± 0.1	–	–	–	0.6 ± 0.1	–	–	–	–	–	0.39	8.3*	–	not tolerated	sub-micromolar	not tolerated	not tolerated	sub-micromolar	–
CC(C)(C)NC(=O)C(c1cccnc1)N(C(=O)c1c[nH]cn1)c1ccc(C2CC2)cc1 (stereo not drawn) [Compound 39, N-(2-(tert-butylamino)-2-oxo-1-(pyridin-3-yl)ethyl)-N-(4-cyclopropylphenyl)-1H-imidazole-4-carboxamide]	–	16.6 ± 1.7	–	12.7 ± 2.5	–	15.7 ± 2	–	2 ± 1.1	17.6 ± 2.6	–	–	0.19	7.6	five out of ten	–	–	–	–	–	–
CC(C)(C)c1ccc(N(C(=O)c2c[nH]cn2)C(C(=O)NC2CC2)c2cccnc2)cc1 (stereo not drawn) [Compound 46, N-(4-(tert-butyl)phenyl)-N-(2-(cyclopropylamino)-2-oxo-1-(pyridin-3-yl)ethyl)-1H-imidazole-4-carboxamide]	24.5 ± 4.3	11.2 ± 1	43.9 ± 6.1	11.8 ± 1.6	16.8 ± 2.9	8.9 ± 0.9	–	7.8 ± 1.2	4.3 ± 0.4	–	–	–	4.0	–	–	–	–	–	–	–
O=C(Nc1ccc(N(C(=O)Cn2nnc3ccccc32)C(C(=O)NC2CCCC2)c2ccsc2)cc1)C1CC1 (stereo not drawn) [Compound 33, N-(4-(2-(1H-benzo[d][1,2,3]triazol-1-yl)-N-(2-(cyclopentylamino)-2-oxo-1-(thiophen-3-yl)ethyl)acetamido)phenyl)cyclopropanecarboxamide]	7.3 ± 0.8	0.5 ± 0.05	–	4.2 ± 0.6	3.7 ± 0.6	0.6 ± 0.1	–	–	–	–	–	0.32	5.7*	–	–	–	–	–	–	not tolerated
